In brackets after ≈: the same amount, converted by molar mass. One block for each compound: values may come before it.
What was measured:
Assay in all cases: ≥ marks a high value that may be exact or a test limit, other limits are often not marked, values filed in µg/mL are converted to µM
[1] = test system: Escherichia coli ATCC 25726
[2] = test system: Staphylococcus aureus ATCC 25923
[3] = test system: Escherichia coli ATCC 8739
[4] = test system: Bacillus subtilis CMCC 63501
[5] = test system: Enterococcus faecalis ATCC 29212
[6] = test system: Escherichia coli ATCC 25922
[7] = test system: Pseudomonas aeruginosa ATCC 27853
[8] = test system: Salmonella enterica subsp. enterica serovar Pullorum C79-13
[9] = test system: Salmonella enterica subsp. enterica serovar Typhimurium C77-31
[10] = test system: Staphylococcus aureus ATCC 29213
[11] = test system: Staphylococcus epidermidis ATCC 12228
[12] = test system: Bacillus subtilis ATCC 6633
[13] = test system: Staphylococcus aureus ATCC 43300
[14] = test system: Staphylococcus aureus ATCC 6538
[15] = test system: Escherichia coli JW0013

SMILES: CC[C@H](C)[C@H](NC(=O)[C@H](CCCCN)NC(=O)[C@H](CO)NC(=O)[C@H](C)NC(=O)[C@H](Cc1c[nH]c2ccccc12)NC(=O)CN)C(=O)NCC(=O)N[C@@H](CCC(N)=O)C(=O)N[C@H](C(=O)N[C@@H](CC(C)C)C(=O)NCC(=O)N[C@@H](CCCCN)C(=O)N[C@@H](CCSC)C(=O)N[C@@H](C)C(=O)N[C@@H](CCCCN)C(=O)N[C@H](C(=O)NCC(=O)N[C@@H](CC(C)C)C(=O)N[C@@H](CCC(N)=O)C(=O)N[C@@H](CCC(=O)O)C(=O)N[C@H](C(=O)N[C@H](C(=O)N[C@@H](CCC(N)=O)C(=O)N1CCC[C@H]1C(=O)N[C@@H](CCCCN)C(=O)O)[C@@H](C)CC)[C@@H](C)CC)C(C)C)[C@@H](C)O [GWASKIGQTLGKMAKVGLQEIIQPK]
MIC [1]: ≥ 50 µM
MIC [2]: > 50 µM

SMILES: CC[C@H](C)[C@H](NC(=O)[C@H](C)NC(=O)[C@H](CC(N)=O)NC(=O)[C@@H](N)CCSC)C(=O)N[C@@H](CC(N)=O)C(=O)N[C@@H](Cc1ccccc1)C(=O)N[C@H](C(=O)N[C@@H](CS)C(=O)N[C@H](C(=O)N[C@H](C(=O)N[C@@H](Cc1cnc[nH]1)C(=O)N[C@@H](CCCCN)C(=O)N[C@@H](CCCCN)C(=O)N[C@H](C(=O)N[C@@H](C)C(=O)N[C@H](C(=O)N[C@@H](CO)C(=O)N[C@H](C(=O)O)C(C)C)[C@@H](C)CC)C(C)C)C(C)C)[C@@H](C)O)[C@@H](C)O [MNAINFTCTVHKKVAISV]
MIC [3]: ≥ 130 µM
MIC [2]: > 130 µM

SMILES: NC(=O)[C@@H]1CCCN1C(=O)[C@H](CCCN=C(N)N)NC(=O)[C@@H]1CCCN1C(=O)[C@H](CCCN=C(N)N)NC(=O)[C@H](CS)NC(=O)[C@H](Cc1ccccc1)NC(=O)[C@H](CCCN=C(N)N)NC(=O)[C@H](CCCN=C(N)N)NC(=O)[C@H](CCCN=C(N)N)NC(=O)[C@H](CS)NC(=O)[C@H](CCCN=C(N)N)NC(=O)[C@@H]1CCCN1C(=O)[C@H](CCCN=C(N)N)NC(=O)[C@@H]1CCCN1 [PRPRCRRRFCRPRP]
MIC [4]: 8 µM (≈ 14.8 µg/mL)
MIC [5]: > 128 µM
MIC [6]: 16 µM (≈ 29.6 µg/mL)
MIC [7]: > 128 µM
MIC [8]: ≥ 128 µM
MIC [9]: ≥ 128 µM
MIC [10]: > 128 µM
MIC [11]: > 128 µM

SMILES: CC[C@H](C)[C@H](NC(=O)[C@H](CC(C)C)NC(=O)[C@H](CC(C)C)NC(=O)[C@H](CC(=O)O)NC(=O)[C@H](CCCCN)NC(=O)[C@@H](NC(=O)[C@@H](NC(=O)CNC(=O)[C@H](CC(C)C)NC(=O)[C@@H](NC(=O)[C@@H](N)CO)C(C)C)[C@@H](C)O)C(C)C)C(=O)NCC(=O)N[C@@H](C)C(=O)NCC(=O)N[C@@H](CCCCN)C(=O)N[C@@H](CO)C(=O)N[C@@H](C)C(=O)N[C@@H](C)C(=O)N[C@@H](CCC(N)=O)C(=O)N[C@@H](CO)C(=O)N[C@H](C(=O)N[C@@H](CC(C)C)C(=O)N[C@H](C(=O)N[C@H](C(=O)N[C@@H](CC(C)C)C(=O)N[C@@H](CO)C(=O)N[C@H]1CSSC[C@@H](C(=O)O)NC(=O)[C@H](CO)NC(=O)[C@H](CC(N)=O)NC(=O)[C@H](CO)NC(=O)[C@H](CC(C)C)NC(=O)[C@H](CCCCN)NC1=O)[C@@H](C)O)[C@@H](C)O)C(C)C [SVLGTVKDLLIGAGKSAAQSVLTTLSCKLSNSC]
MIC [3]: ≥ 50 µM
MIC [14]: 25 µM (≈ 81.6 µg/mL)

SMILES: CC[C@H](C)[C@H](NC(=O)[C@H](CCCN=C(N)N)NC(=O)[C@H](CCCN=C(N)N)NC(=O)[C@@H]1CCCN1C(=O)[C@@H]1CCCN1C(=O)[C@H](CCCN=C(N)N)NC(=O)[C@H](CCCCN)NC(=O)[C@H](CCCN=C(N)N)NC(=O)[C@@H]1CCCN1C(=O)[C@H](CC(C)C)NC(=O)[C@H](Cc1ccc(O)cc1)NC(=O)[C@@H]1CCCN1C(=O)[C@H](CCCCN)NC(=O)[C@H](CCCCN)NC(=O)[C@H](CC(=O)O)NC(=O)[C@@H](N)C(C)C)C(=O)N[C@@H](Cc1ccc(O)cc1)C(=O)N[C@@H](CC(N)=O)C(=O)N[C@@H](CCCN=C(N)N)C(N)=O [VDKKPYLPRKRPPRRIYNR]
MIC [15]: 0.489 µM (≈ 1.2 µg/mL)

SMILES: CC[C@H](C)[C@H](NC(=O)[C@H](CCCN=C(N)N)NC(=O)[C@H](CCCN=C(N)N)NC(=O)[C@@H]1CCCN1C(=O)[C@@H]1CCCN1C(=O)[C@H](CCCN=C(N)N)NC(=O)[C@@H]1CCCN1C(=O)[C@H](CCCN=C(N)N)NC(=O)[C@@H]1CCCN1C(=O)[C@H](CC(C)C)NC(=O)[C@H](Cc1ccc(O)cc1)NC(=O)[C@H](CCCN=C(N)N)NC(=O)[C@@H]1CCCN1C(=O)[C@H](CCCCN)NC(=O)[C@H](CC(=O)O)NC(=O)[C@@H](N)C(C)C)C(=O)N[C@@H](Cc1ccc(O)cc1)C(=O)N[C@@H](CC(N)=O)C(=O)N[C@@H](CCCN=C(N)N)C(N)=O [VDKPRYLPRPRPPRRIYNR]
MIC [15]: 1.35 µM (≈ 3.3 µg/mL)

SMILES: CC[C@H](C)[C@H](NC(=O)[C@H](CCCN=C(N)N)NC(=O)[C@H](CCCN=C(N)N)NC(=O)[C@@H]1CCCN1C(=O)[C@@H]1CCCN1C(=O)[C@H](CCCN=C(N)N)NC(=O)[C@H](CCCCN)NC(=O)[C@H](CCCN=C(N)N)NC(=O)[C@@H]1CCCN1C(=O)[C@H](CC(C)C)NC(=O)[C@H](Cc1ccc(O)cc1)NC(=O)[C@@H]1CCCN1C(=O)[C@H](CCCN=C(N)N)NC(=O)[C@H](CCCCN)NC(=O)[C@H](CC(=O)O)NC(=O)[C@@H](N)C(C)C)C(=O)N[C@@H](Cc1ccc(O)cc1)C(=O)N[C@@H](CC(N)=O)C(=O)N[C@@H](CCCN=C(N)N)C(N)=O [VDKRPYLPRKRPPRRIYNR]
MIC [15]: 0.685 µM (≈ 1.7 µg/mL)

Second part, the compound after the results:

MIC [1]: ≥ 32 µM
MIC [2]: 2 µM (≈ 5.11 µg/mL)
SMILES: CC[C@H](C)[C@H](NC(=O)[C@H](CCCCN)NC(=O)[C@H](C)NC(=O)[C@H](C)NC(=O)[C@H](CC(C)C)NC(=O)CNC(=O)[C@H](C)NC(=O)[C@H](CC(C)C)NC(=O)[C@@H](NC(=O)[C@@H]1CCCN1C(=O)[C@H](CC(C)C)NC(=O)[C@@H](N)Cc1ccccc1)[C@@H](C)CC)C(=O)N[C@H](C(=O)N1CCC[C@H]1C(=O)N[C@@H](CCCCN)C(=O)N[C@@H](CC(C)C)C(=O)N[C@@H](Cc1ccccc1)C(=O)N[C@H]1CSSC[C@@H](C(=O)O)NC(=O)[C@H](CCCCN)NC(=O)[C@H](CCCCN)NC(=O)[C@H]([C@@H](C)O)NC(=O)[C@H](C)NC(=O)[C@H](CC(C)C)NC1=O)C(C)C [FLPILAGLAAKIVPKLFCLATKKC]

MIC [12]: 12.5 µM (≈ 42.4 µg/mL)
MIC [3]: ≥ 50 µM
MIC [13]: 100 µM (≈ 339 µg/mL)
MIC [14]: 12.5 µM (≈ 42.4 µg/mL)
SMILES: CC[C@H](C)[C@@H]1NC(=O)[C@H](CCCCN)NC(=O)[C@@H](NC(=O)[C@H](CO)NC(=O)[C@H](CC(C)C)NC(=O)[C@H](C)NC(=O)[C@H](CC(N)=O)NC(=O)[C@H](CC(C)C)NC(=O)[C@@H](NC(=O)[C@H](CO)NC(=O)[C@@H](NC(=O)CNC(=O)[C@H](C)NC(=O)[C@H](CO)NC(=O)[C@H](CCCCN)NC(=O)[C@H](C)NC(=O)[C@H](C)NC(=O)[C@H](CC(N)=O)NC(=O)[C@@H](NC(=O)[C@H](C)NC(=O)[C@H](CC(C)C)NC(=O)[C@H](CC(N)=O)NC(=O)[C@H](CCCCN)NC(=O)[C@H](Cc2ccccc2)NC(=O)[C@@H](NC(=O)[C@H](CC(=O)O)NC(=O)[C@H](CC(C)C)NC(=O)[C@H](CC(C)C)NC(=O)[C@@H](N)CO)[C@@H](C)O)C(C)C)C(C)C)C(C)C)CSSC[C@@H](C(=O)O)NC(=O)[C@H]([C@@H](C)O)NC(=O)[C@H](CCCN=C(N)N)NC(=O)[C@H](CO)NC1=O [SLLDTFKNLAVNAAKSAGVSVLNALSCKISRTC]

MIC [15]: 0.635 µM (≈ 1.6 µg/mL)
SMILES: CC[C@H](C)[C@H](NC(=O)[C@H](CCCN=C(N)N)NC(=O)[C@H](CCCN=C(N)N)NC(=O)[C@@H]1CCCN1C(=O)[C@@H]1CCCN1C(=O)[C@H](CCCN=C(N)N)NC(=O)[C@H](CCCCN)NC(=O)[C@H](CCCN=C(N)N)NC(=O)[C@@H]1CCCN1C(=O)[C@H](CC(C)C)NC(=O)[C@H](Cc1ccc(O)cc1)NC(=O)[C@H](Cc1cnc[nH]1)NC(=O)[C@H](CCCN=C(N)N)NC(=O)[C@H](CCCCN)NC(=O)[C@H](CC(=O)O)NC(=O)[C@@H](N)C(C)C)C(=O)N[C@@H](Cc1ccc(O)cc1)C(=O)N[C@@H](CC(N)=O)C(=O)N[C@@H](CCCN=C(N)N)C(N)=O [VDKRHYLPRKRPPRRIYNR]

MIC [15]: 1.37 µM (≈ 3.3 µg/mL)
SMILES: CC[C@H](C)[C@H](NC(=O)[C@H](CCCN=C(N)N)NC(=O)[C@H](CCCN=C(N)N)NC(=O)[C@@H]1CCCN1C(=O)[C@@H]1CCCN1C(=O)[C@H](CCCN=C(N)N)NC(=O)[C@@H]1CCCN1C(=O)[C@H](CCCN=C(N)N)NC(=O)[C@@H]1CCCN1C(=O)[C@H](CC(C)C)NC(=O)[C@H](Cc1ccc(O)cc1)NC(=O)[C@@H]1CCCN1C(=O)[C@@H]1CCCN1C(=O)[C@H](CCCCN)NC(=O)[C@H](CCCCN)NC(=O)[C@@H](N)C(C)C)C(=O)N[C@@H](Cc1ccc(O)cc1)C(=O)N[C@@H](CC(N)=O)C(=O)N[C@@H](CCCN=C(N)N)C(N)=O [VKKPPYLPRPRPPRRIYNR]

Source: DBAASP
